Laboratory results published in PubChem BioAssay AID792 (PCMD, 2007).
pIC50: −log10 of the molar value. Records with an inconclusive call do not appear. Activity calls are given as the source filed them. The rule behind the calls is not given here.

Biological target: S. cerevisiae eIF2B mutant, luciferase reporter luminescence
Assay: eIF2B reporter inhibitors in yeast strains, dose response, S. cerevisiae, mutant, wild-type, luminescence, growth (AID 792)
[1] = measured here: mutant yeast growth
[2] = S. cerevisiae wild-type, luminescence

Compound	IC50	pIC50 [1]	pIC50 [2]
Cc1cc(N)n2nc(-c3ccc(C(C)(C)C)cc3)cc2n1	inactive	4.52	–
Cc1cc(C)n(-c2cc(=O)n(C)c(=O)n2C)n1	> 100 µM (inactive)	< 4.00	–
Cc1cc(C)cc(NS(=O)(=O)c2ccc3[nH]c(=O)[nH]c3c2)c1	> 100 µM (inactive)	< 4.00	–
CCCCCOC(=O)Nc1nnc(CCC)s1	> 100 µM (inactive)	< 4.00	–
CCS(=O)(=O)N1CCCC(C(=O)NCCN(C)Cc2ccccc2)C1 (stereo not drawn)	> 100 µM (inactive)	< 4.00	–
Cc1cc(C)cc(OCc2nnc(SCC(=O)N3CCN(c4ccccc4)CC3)o2)c1	> 100 µM (inactive)	< 4.00	–
O=C(Nc1cccnc1)c1noc2c1CCCCC2	inactive	< 4.00	4.01
O=C(NC1CCCC1)C(c1ccsc1)N(Cc1ccco1)C(=O)Cc1cccs1 (stereo not drawn)	> 100 µM (inactive)	< 4.00	–
O=S(=O)(N1CCCCC1)N1CCCN(S(=O)(=O)N2CCCCC2)CC1	> 100 µM (inactive)	< 4.00	–
O=C1CC(O)(C(F)F)Oc2ccc3ccccc3c21 (stereo not drawn)	> 100 µM (inactive)	< 4.00	–
COC(=O)c1cn(CCOc2ccccc2)c2ccccc12	> 100 µM (inactive)	< 4.00	–
Cc1ccc(S(=O)(=O)N2CCOCC2)cc1C(=O)NCc1ccco1	> 100 µM (inactive)	< 4.00	–
CNc1nc2ccccc2n1/N=C/c1cccc(OC)c1OC	> 100 µM (inactive)	< 4.00	–
Cc1c(C(=O)N2CCCC2)sc(NC(=O)c2ccc(Cl)cc2)c1C#N	> 100 µM (inactive)	< 4.00	–
CS(=O)(=O)c1ccc2nc(NC(=O)C3C4C=CC(C4)C3C(=O)O)sc2c1 (stereo not drawn)	> 100 µM (inactive)	< 4.00	–
Cc1cc(C(=O)Nc2ccccc2C(F)(F)F)no1	> 100 µM (inactive)	< 4.00	–
COc1ccccc1NC(=S)NNC(=O)c1ccccc1	> 100 µM (inactive)	< 4.00	–
CC1(C)Cc2c(sc3c2c(=N)n(Cc2ccco2)c(=O)n3Cc2ccc(F)cc2)CO1	> 100 µM (inactive)	< 4.00	–
NC(=O)CSC1=Nc2ccccc2C2=NC(CC(=O)NCc3cccs3)C(=O)N12 (stereo not drawn)	> 100 µM (inactive)	< 4.00	–
Cc1ccc(C)c(N2CCN(C(=O)c3ccc(CS(=O)(=O)c4ccccc4C)o3)CC2)c1	> 100 µM (inactive)	< 4.00	–
C=CCn1c(SC2CCOC2=O)nc2sc(CC)cc2c1=O (stereo not drawn)	> 100 µM (inactive)	< 4.00	–
c1ccc2c(c1)CNc1ccccc1O2	> 100 µM (inactive)	< 4.00	–
C=CCc1c(C)nc(C)nc1N/N=C/c1ccccc1O	> 100 µM (inactive)	< 4.00	–
COc1ccccc1NC(=O)CSc1nc(O)cc(=O)n1C	> 100 µM (inactive)	< 4.00	–
CCCCN(C(=O)Cn1nnc2ccccc21)C(C(=O)NCCOC)c1ccccc1 (stereo not drawn)	> 100 µM (inactive)	< 4.00	–
CCc1ccc2oc(-c3cccc(NC(=O)c4cccnc4)c3)nc2c1	> 100 µM (inactive)	< 4.00	–
CCOCCCNC(=O)c1c[nH]c2ccc(C)cc2c1=O	> 100 µM (inactive)	< 4.00	–

Compound	IC50	pIC50 [1]	pIC50 [2]
COc1ccc(CC(=O)Nc2ccc(N3CCN(c4ccc(OC)cc4)CC3)c(C#N)c2)cc1	> 100 µM (inactive)	< 4.00	–
CCOc1ccc(C2NC(=O)NC(C)=C2C(=O)OC)cc1C (stereo not drawn)	inactive	4.48	–
Cc1ccc2c(c1)N(CC(=O)NCc1cccnc1)C(=O)CO2	> 100 µM (inactive)	< 4.00	–
COC(=O)c1cc(O)c(OCc2ccccc2)c(O)c1	> 100 µM (inactive)	< 4.00	–
COC(=O)c1cc2occc2n1CC(=O)Nc1ccc(OC)c(OC)c1	> 100 µM (inactive)	< 4.00	–
O=c1c2ccccc2nc(-c2ccco2)n1-c1nc2ccccc2s1	> 100 µM (inactive)	< 4.00	–
CCOC(=O)N1CCN(C(=O)c2nn(-c3cc(OC)cc(OC)c3)c(=O)c3ccccc23)CC1	> 100 µM (inactive)	< 4.00	–
COc1cc(NS(=O)(=O)c2ccc3c(c2)n(C)c(=O)n3C)cc(OC)c1	> 100 µM (inactive)	< 4.00	–
O=C(N1CCOCC1)N1c2ccccc2CC(N2CCOCC2)c2ccccc21 (stereo not drawn)	> 100 µM (inactive)	< 4.00	–
COc1cccc(-c2nc(N3CCCCC3C)c3ccccc3n2)c1O (stereo not drawn)	> 100 µM (inactive)	< 4.00	–
CSc1ccccc1NC(=O)c1cc(-c2cccs2)on1	> 100 µM (inactive)	< 4.00	–
CCOC(=O)c1nn(-c2cccc(Cl)c2)c2nc(CC(C)C)c(C#N)c(=O)n12	> 100 µM (inactive)	< 4.00	–
CC(=O)/C(C(=N)N1CCN(c2cccc(Cl)c2)CC1)=C(\C)O	> 100 µM (inactive)	< 4.00	–
COc1ccccc1-c1nnc2sc(COc3ccc(Cl)cc3)nn12	> 100 µM (inactive)	< 4.00	–
CCCCCOC(=O)Cn1c(SCC(=O)Nc2ccccc2)nc2c1c(=O)[nH]c(=O)n2C	> 100 µM (inactive)	< 4.00	–
CCOC(=O)N1CCN(C(=O)CN(Cc2ccc(Cl)cc2)S(=O)(=O)c2ccc(C)cc2)CC1	> 100 µM (inactive)	< 4.00	–
CC(=O)c1ccc(NC(=O)c2noc3c2CCCCC3)cc1	> 100 µM (inactive)	< 4.00	–
O=C(Cc1ccccc1)N(c1ccc(F)cc1)C1C=CS(=O)(=O)C1 (stereo not drawn)	> 100 µM (inactive)	< 4.00	–
O=C(NC1CCCC1)C(c1ccccc1)N(Cc1ccco1)C(=O)Cc1cccs1 (stereo not drawn)	> 100 µM (inactive)	< 4.00	–
Cc1ccc(C(=O)NCc2ccco2)cc1S(=O)(=O)Nc1cccc(C)c1C	> 100 µM (inactive)	< 4.00	–
CN1CCN(C(=O)CSc2nc(-c3ccncc3)ccc2C#N)CC1	> 100 µM (inactive)	< 4.00	–
CN1CCN(c2nc(N3CCN(CCO)CC3)nc3ccccc23)CC1	> 100 µM (inactive)	< 4.00	–
CC(=O)c1cnc2c(-c3ccc(Cl)cc3)c(C)nn2c1C	> 100 µM (inactive)	< 4.00	–
CCOc1ccc(-n2cc(C(=O)N3CCC(C)CC3)c3cc(OC)c(OC)cc3c2=O)cc1	> 100 µM (inactive)	< 4.00	–
O=C(CC1Nc2ccccc2NC1=O)NC1CCCCC1 (stereo not drawn)	> 100 µM (inactive)	< 4.00	–
Cc1ccnc2nc(C(=O)Nc3ccc(N4CCOCC4)cc3)nn12	inactive	< 4.00	4.96
C=CCn1c(N)cc(=O)nc1SCC(=O)Nc1ccccc1	> 100 µM (inactive)	< 4.00	–

Compound	IC50	pIC50 [1]	pIC50 [2]
COCC(=O)Nc1cc(OC)c(Cl)cc1OC	> 100 µM (inactive)	< 4.00	–
CCOC(=O)Cn1c(=O)c(-c2ccccc2NCc2ccccc2)nc2ccccc21	> 100 µM (inactive)	< 4.00	–
CNC(=O)Cn1nc(-c2ccc(C)c(S(=O)(=O)N(C)C)c2)c2ccccc2c1=O	> 100 µM (inactive)	< 4.00	–
Cc1ccc(NC(=O)c2ccc(S(=O)(=O)N3CCCCC3)cc2)cc1	> 100 µM (inactive)	< 4.00	–
N#CC1=C(SCC(=O)c2ccc(Cl)cc2)NC2=C(C(=O)CCC2)C1c1ccco1 (stereo not drawn)	> 100 µM (inactive)	< 4.00	–
Nn1c(COc2cccc(Br)c2)nnc1SCC(=O)N1CCc2ccccc2C1	> 100 µM (inactive)	< 4.00	–
Cc1ccc(NC(=O)CN(C)C(=O)CSc2nc3ccccc3o2)cc1	> 100 µM (inactive)	< 4.00	–
COc1ccccc1NC(=O)c1cc2ccccc2o/c1=N\O	> 100 µM (inactive)	< 4.00	–
Cc1cc2ncc(C(=O)Nc3ccccc3)c(C)n2n1	> 100 µM (inactive)	< 4.00	–
O=c1c(Cl)c(NCCCO)cnn1-c1nc2ccccc2[nH]1	inactive	4.54	4.80
CCOC(=O)c1oc2cc(O)ccc2c(=O)c1-c1csc(C)n1	> 100 µM (inactive)	< 4.00	–
CCC(=O)N(Cc1cc(=O)[nH]c2ccccc12)c1cccc(C)c1	> 100 µM (inactive)	< 4.00	–
COc1cc(/C=C2\C(=O)N(CCC#N)N=C2C)c(Br)cc1OC(C)C	> 100 µM (inactive)	< 4.00	–
CC1(C)Cc2c(c(=S)nc(-c3ccccc3)n2CCOCCO)CO1	> 100 µM (inactive)	< 4.00	–
Cc1cccc(N2C(=O)c3cccnc3C2=O)c1	> 100 µM (inactive)	< 4.00	–
c1ccc(-c2cc(-c3nn4c(-c5ccco5)nnc4s3)c3ccccc3n2)cc1	> 100 µM (inactive)	< 4.00	–
COc1ccc(S(=O)(=O)N2CCCCC2)cc1C(C)C	> 100 µM (inactive)	< 4.00	–
COc1ccc(C2SCC(=O)Nc3c2c(C)nn3C2CCOC(C)(C)C2)cc1 (stereo not drawn)	> 100 µM (inactive)	< 4.00	–
CCC(C)Oc1cccc(OCCCCN2C(=O)NC(C)(C)C2=O)c1 (stereo not drawn)	> 100 µM (inactive)	< 4.00	–
Cc1cccc2nc(CSc3nnc4ccccn34)cn12	> 100 µM (inactive)	< 4.00	–
O=C(NCCc1ccccn1)c1cccc(S(=O)(=O)N2CCCCCC2)c1	> 100 µM (inactive)	< 4.00	–
Cc1cc(C)nc(Nc2n[nH]c(COc3ccc(Cl)cc3)n2)n1	> 100 µM (inactive)	< 4.00	–
CN1C(=O)NC(c2ccccc2)C2=C1CN(c1cccc(C(F)(F)F)c1)C2=O (stereo not drawn)	> 100 µM (inactive)	< 4.00	–
O=C(c1ccc(Br)o1)N1CCCc2ccccc21	> 100 µM (inactive)	< 4.00	–
COc1ccc2c(c1)CCc1c(C(=O)N3CC4(C)CC3CC(C)(C)C4)noc1-2 (stereo not drawn)	> 100 µM (inactive)	< 4.00	–
O=C(Nc1ccccc1N1CCN(C(=O)c2ccccc2)CC1)c1cc2ccccc2o1	> 100 µM (inactive)	< 4.00	–
